Experimental data reported in paper PMC6100259, “Insights into Structure-Activity Relationships of 3-Arylhydrazonoindolin-2-One Derivatives for Their Multitarget Activity on β-Amyloid Aggregation and Neurotoxicity” (Molecules : A Journal of Synthetic Chemistry and Natural …, 2018).
Read-outs that look alike come from different tables or passages of the source.

How the values were obtained:
Aβ40 peptide = molecular target: T1, Aβ40 peptide (Homo sapiens, UniProt P05067); experiment: Inhibition of Aβ40 aggregation, ThT fluorescence-based method; format: biochemical; details: for inhibition at 100 µM: Aβ40, compound 100 µM, ThT fluorescence, read-out: % Inhibition @ 100 µM, Aβ antiaggregating activity; for fold less potent than compound 1 (Aβ40 aggregation): ratio of IC50s vs compound 1; for Aβ aggregation inhibition, result in words: Aβ40, ThT assay
T1 construct: we preferred using Aβ40 peptide
T1 sequence (P05067 672-711 limits assumed): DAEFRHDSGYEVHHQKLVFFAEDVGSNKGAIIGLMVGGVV
Experimental: In vitro inhibition of Aβ aggregation was assessed through a ThT fluorescence-based method, with the use of 2% 1,1,1,3,3,3-hexafluoroisopropanol (HFIP) as aggregation enhancer. In this medium-throughput assay, we preferred using Aβ40 peptide, being more manageable than Aβ42 and less prone to the formation of preaggregates. Samples of Aβ were co-incubated with test molecules in PBS at 100 µM concentration and the antiaggregating activities were measured after 2 h of incubation at 25 °C. For compounds showing >80% Aβ40 aggregation inhibition, IC50s were determined.
The spectrofluorimetric assays, measuring ThT fluorescence in the presence of Aβ, were done as previously described. Briefly, coincubation samples were prepared as described above (Section 2.2 and Section 2.3) in 96-well black, non-binding microplates (Greiner Bio-One GmbH, Frickenhausen, Germany). Fluorimetric reads were performed in a multiplate reader Infinite M1000 Pro (Tecan, Cernusco sul Naviglio, Italy). Each concentration point was run in triplicate. CD ellipticity measures were performed as detailed in ref. [20], following the increase of the negative band at 215 nm as indicative of β-sheet arrangement.

[1] = Lipophilicity by RP-HPLC (log k'w); format: physicochemical; details: RP-HPLC C18, MeOH/10 mM ammonium formate buffer pH 4.5, extrapolated to 100% aqueous mobile phase, 25 °C
Experimental: To place on a more quantitative basis the above SAR trends, the lipophilicity of a number of isatin arylhydrazone derivatives was measured by an RP-HPLC method. The polycratic capacity factors (log k’w) were determined (details in the Experimental Section). Lipophilicity descriptors (i.e., 1-octanol–water partition coefficients) were also calculated (CLOGPs) using two computational tools (Bio-Loom software, v. 1.7 and ACDLabs software, release 10.0). The ACDLabs software was used also for calculating descriptors of polarizability and size, namely molar refractivity (CMR) and molar volume (MV). The experimental lipophilicity parameters (log k’w), along with CMR and MV, are reported in Table 6 for 18 compounds achieving finite IC50s (<100 µM) in the Aβ aggregation assay.
The lipophilicity parameters were determined by an RP-HPLC technique. Methanol solutions of the investigated hydrazone compounds (0.5 mg/mL) were injected into an Agilent 1260 infinity HPLC system (Agilent Technologies Italia, Milan), equipped with a diode array detector (DAD), and a Phenomenex Kinetex C18 column (150 × 4.6 mm, 5 μ, Phenomenex Italy s.r.l., Castel Maggiore, BO, Italy), and eluted at different mobile phase compositions (0.05 increments of MeOH volume fraction in 10 mM ammonium formate buffer at pH 4.5, ranging ϕ between 0.85 and 0.30). All RP-HPLC measurements were carried out at 25 ± 1 °C, at a flow rate of 1.0 mL/min, and at 254 nm wavelength.
The logarithm of capacity factors (log k′ = log (tR − t0)/t0) of each compound at different mobile phase compositions have been calculated; tR represents the retention time of the solute and t0 is the column dead time, measured as the elution time of a KNO3 solution in MeOH. For each compound, the log k′ values increased linearly with decreasing MeOH volume fraction. Logarithms of capacity factors extrapolated to the 100% aqueous mobile phase (log k′w) were calculated from the linear regressions on at least five data points (r^2 > 0.975).

[2] = 2% HFIP, PBS, 2 h at 25 °C, mean ± SEM of three independent experiments
[3] = Aβ40 aggregation inhibition, read-out: pIC50, Aβ antiaggregating potency (converted)

COc1ccc2c(c1)/C(=N/Nc1ccc(C#N)cc1)C(=O)N2 [Compound 4, (Z)-4-(2-(5-Methoxy-2-oxoindolin-3-ylidene)hydrazinyl)benzonitrile]
inhibition at 100 µM (Aβ40 peptide; [2]): 16%

COc1ccc2c(c1)/C(=N/Nc1ccc(C(F)(F)F)cc1)C(=O)N2 [Compound 5, (Z)-5-Methoxy-3-(2-(4-(trifluoromethyl)phenyl)hydrazono)indolin-2-one]
inhibition at 100 µM (Aβ40 peptide; [2]): 57%

COc1ccc2c(c1)/C(=N/Nc1cc(C(F)(F)F)cc(C(F)(F)F)c1)C(=O)N2 [Compound 6, (Z)-3-(2-(3,5-bis(trifluoromethyl)phenyl)hydrazono)-5-methoxyindolin-2-one]
IC50 (Aβ40 peptide): 9.9 ± 0.8 µM | fold less potent than compound 1 (Aβ40 aggregation) (Aβ40 peptide): 25 fold | log k'w [1]: 6.29

COc1ccc2c(c1)/C(=N/Nc1ccccn1)C(=O)N2 [Compound 7, (Z)-5-Methoxy-3-(2-(pyridin-2-yl)hydrazono)indolin-2-one]
IC50 (Aβ40 peptide): 90 ± 5 µM | log k'w [1]: 2.34

COc1ccc2c(c1)/C(=N/Nc1cccc3ccccc13)C(=O)N2 [Compound 8, (Z)-5-Methoxy-3-(2-(naphthalen-1-yl)hydrazono)indolin-2-one]
IC50 (Aβ40 peptide; [3]): 28.2 µM | log k'w [1]: 5.15

COc1ccc2c(c1)/C(=N/Nc1ccc3ccccc3n1)C(=O)N2 [Compound 9, (Z)-5-Methoxy-3-(2-(quinolin-2-yl)hydrazono)indolin-2-one]
inhibition at 100 µM (Aβ40 peptide; [2]): 67%

COc1ccc2c(c1)/C(=N/Nc1cccc3cccnc13)C(=O)N2 [Compound 10, (Z)-5-Methoxy-3-(2-(quinolin-8-yl)hydrazono)indolin-2-one]
inhibition at 100 µM (Aβ40 peptide; [2]): 58%

COc1ccc2c(c1)/C(=N/Nc1ccnc3cc(Cl)ccc13)C(=O)N2 [Compound 11, (Z)-3-(2-(7-Chloroquinolin-4-yl)hydrazono)-5-methoxy-indolin-2-one]
Aβ aggregation inhibition, result in words (Aβ40 peptide): very weak inhibitor | inhibition at 100 µM (Aβ40 peptide; [2]): 14%

COc1ccc2c(c1)/C(=N/Nc1nc(CCl)cs1)C(=O)N2 [Compound 13, (Z)-3-(2-(4-(Chloromethyl)thiazol-2-yl)hydrazono)-5-methoxyindolin-2-one]
IC50 (Aβ40 peptide; [3]): 12.9 µM | log k'w [1]: 3.95

COc1ccc2c(c1)/C(=N/Nc1nc(C)c(C)s1)C(=O)N2 [Compound 14, (Z)-3-(2-(4,5-Dimethylthiazol-2-yl)hydrazono)-5-methoxyindolin-2-one]
Aβ aggregation inhibition, result in words (Aβ40 peptide): very weak inhibitor | inhibition at 100 µM (Aβ40 peptide; [2]): 43%

COc1ccc2c(c1)/C(=N/Nc1nc(-c3ccccc3)cs1)C(=O)N2 [Compound 15]
IC50 (Aβ40 peptide; [3]): 1.2 µM | log k'w [1]: 5.10

COc1ccc2c(c1)/C(=N/Nc1nc(-c3cccc(O)c3)cs1)C(=O)N2 [Compound 16, (Z)-3-(2-(4-(3-Hydroxyphenyl)thiazol-2-yl)hydrazono)-5-methoxyindolin-2-one]
IC50 (Aβ40 peptide; [3]): 15.8 µM | log k'w [1]: 4.58

COc1cccc(-c2csc(N/N=C3\C(=O)Nc4ccc(OC)cc43)n2)c1 [Compound 17, (Z)-5-Methoxy-3-(2-(4-(3-methoxyphenyl)thiazol-2-yl)hydrazono)indolin-2-one]
IC50 (Aβ40 peptide; [3]): 33.9 µM | log k'w [1]: 5.29

COc1ccc2c(c1)/C(=N/Nc1nc(-c3cccc(Br)c3)cs1)C(=O)N2 [Compound 18, (Z)-3-(2-(4-(3-Bromophenyl)thiazol-2-yl)hydrazono)-5-methoxyindolin-2-one]
IC50 (Aβ40 peptide; [3]): 39.8 µM | log k'w [1]: 5.67

COc1ccc2[nH]cc(/C=N/Nc3ccc(C(C)C)cc3)c2c1 [Compound 19]
IC50 (Aβ40 peptide): 41 ± 3 µM | fold less potent than compound 1 (Aβ40 aggregation) (Aβ40 peptide): 100 fold | log k'w [1]: 6.42

COc1ccc2c(c1)/C(=N\N=C/c1ccc(C(C)C)cc1)C(=O)N2 [Compound 21, (Z)-3-((E)-(4-Isopropylbenzylidene)hydrazono)-5-methoxyindolin-2-one]
IC50 (Aβ40 peptide; Aβ40, ThT fluorescence, 2% HFIP, PBS, 2 h at 25 °C, mean ± SEM of three independent experiments, read-out: IC50 (µM), Aβ antiaggregating activity): 6.7 ± 0.2 µM | log k'w [1]: 4.82

COc1ccc2c(c1)/C(=N\N=C/c1cccc(Cl)c1)C(=O)N2 [Compound 22, (Z)-3-((E)-(3-chlorobenzylidene)hydrazono)-5-methoxyindolin-2-one]
IC50 (Aβ40 peptide; [3]): 11 µM | log k'w [1]: 4.21

COc1ccc2c(c1)C(=NNC(=O)c1cccc(Cl)c1)C(=O)N2 [Compound 23, 3-Chloro-N’-(5-methoxy-2-oxoindolin-3-ylidene)benzohydrazide]
Aβ aggregation inhibition, result in words (Aβ40 peptide): sharp drop of activity | inhibition at 100 µM (Aβ40 peptide; [2]): 31%

COc1ccc2c(c1)/C(=N/N(C)c1ccc(C(C)C)cc1)C(=O)N2C [Compound 24, (Z)-3-(2-(4-Isopropylphenyl)-2-methylhydrazono)-5-methoxy-1-methylindolin-2-one]
IC50 (Aβ40 peptide; [3]): 11 µM | fold decrease in inhibition potency compared with 26 (Aβ40 peptide; vs non-methylated compound 26): more than 10 fold | log k'w [1]: 4.23

COc1ccc2c(c1)/C(=N/Nc1ccc(C(C)C)cc1)C(=O)N2C [Compound 26, (Z)-3-(2-(4-Isopropylphenyl)hydrazono)-5-methoxy-1-methylindolin-2-one]
IC50 (Aβ40 peptide): 0.81 ± 0.11 µM | log k'w [1]: 5.96

COc1ccc2c(c1)/C(=N/Nc1ccc(C(C)C)cc1)C(=O)N2Cc1ccccc1 [Compound 32, (Z)-1-Benzyl-3-(2-(4-isopropylphenyl)hydrazono)-5-methoxyindolin-2-one]
IC50 (Aβ40 peptide): 0.53 ± 0.1 µM | log k'w [1]: 7.44

COc1ccc2c(c1)/C(=N/Nc1ccc(C(C)C)cc1)C(=O)N2CCc1ccccc1 [Compound 33, (Z)-3-(2-(4-Isopropylphenyl)hydrazono)-5-methoxy-1-phenethylindolin-2-one]
IC50 (Aβ40 peptide): 0.61 ± 0.03 µM | log k'w [1]: 7.24

COc1ccc2c(c1)/C(=N/Nc1ccc(C(C)C)cc1)C(=O)N2CCCc1ccccc1 [Compound 34, (Z)-3-(2-(4-Isopropylphenyl)hydrazono)-5-methoxy-1-(3-phenylpropyl)indolin-2-one]
IC50 (Aβ40 peptide): 0.83 ± 0.2 µM | log k'w [1]: 7.87

CCCCc1ccc2c(c1)C(=NNc1ccc(C(C)C)cc1)C(=O)N2 [Compound 36, 5-Butyl-3-(2-(4-isopropylphenyl)hydrazono)indolin-2-one]
inhibition at 100 µM (Aβ40 peptide; [2]): 55 ± 1%

CC(C)c1ccc(NN=C2C(=O)Nc3c(Br)cccc32)cc1 [Compound 37, 7-Bromo-3-(2-(4-isopropylphenyl)hydrazono)indolin-2-one]
Aβ aggregation inhibition, result in words (Aβ40 peptide): complete loss of activity | inhibition at 100 µM (Aβ40 peptide; [2]): < 5%

CC(C)c1ccc(NN=C2C(=O)Nc3ccc(S(=O)(=O)O)cc32)cc1 [Compound 38, Sodium 3-(2-(4-isopropylphenyl)hydrazono)-2-oxoindolin-5-sulfonate]
inhibition at 100 µM (Aβ40 peptide; [2]): 35 ± 4%

CC(C)c1ccc(N/N=C2\C(=O)Nc3cc4c(cc32)OCO4)cc1 [Compound 39, (Z)-7-(2-(4-isopropylphenyl)hydrazono)-5H-[1,3]dioxolo[4,5-f]indol-6(7H)-one]
inhibition at 100 µM (Aβ40 peptide; [2]): 70 ± 4%
